# Literature values in US6995188B2 (priority 2002, dated 2006).
# Like-named read-outs stand apart in the source and are kept apart here.
# Assays:
# [1] = tested on: P388 lymphocytic leukemia cells; settings: mouse, in vivo, ip, cited from earlier work
# [2] = tested on: patients with advanced leukemia; settings: 8 patients, 3 days per week for 3 consecutive weeks; cited from earlier work
# [3] = tested on: APL and non-APL cell lines; settings: compared with arsenic trioxide; cited from earlier work
molecule,measurement,setting,value
"CC(=O)OC[C@H]1O[C@@H](S[As](C2CCCCC2)C2CCCCC2)[C@H](OC(C)=O)[C@@H](OC(C)=O)[C@@H]1OC(C)=O [Compound 6, 2,3,4,6-tetra-O-acetyl-1-S-dicyclohexylarsino-1-thio-β-D-glucopyranose]",% T/C,[1]; 400 mg/kg,Toxic
"CCCCCCCCCCCCCCCC[As](CCCCCCCCCCCCCCCC)S[C@@H]1O[C@H](COC(C)=O)[C@@H](OC(C)=O)[C@H](OC(C)=O)[C@H]1OC(C)=O [Compound 5, 2,3,4,6-tetra-O-acetyl-1-S-dihexadecylarsino-1-thio-β-D-glucopyranose]",% T/C,[1]; 50 mg/kg,125%
"CC[As](CC)S[C@@H]1O[C@H](COC(C)=O)[C@@H](OC(C)=O)[C@H](OC(C)=O)[C@H]1OC(C)=O [Compound 3, 2,3,4,6-tetra-O-acetyl-1-S-diethylarsino-1-thio-β-D-glucopyranose]",% T/C,[1]; 100 mg/kg,180%
Nc1nc(N)nc(Nc2ccc([As]3SCC(CO)S3)cc2)n1 (centres unmarked) [melarsoprol],antitumor effects,[2],Only one patient (with chronic lymphocytic leukemia) displayed antitumor effects
same,side effects,[2],most experienced neurological side effects
same,activity against APL and non-APL cell lines,[3],activity at least equivalent to that of arsenic trioxide
"C[As](C)SCC(N)C(=O)O (racemic) [Compound 10, S-dimethylarsino-DL-cysteine]",% T/C,[1]; 50 mg/kg,110%
"CC(=O)OC[C@H]1O[C@@H](S[As](C)C)[C@H](OC(C)=O)[C@@H](OC(C)=O)[C@H]1OC(C)=O [Compound 16, 2,3,4,6-tetra-O-acetyl-1-S-dimethylarsino-1-thio-β-D-galactopyranose]",% T/C,[1]; 100 mg/kg,129%
"2,3,4,6-tetra-O-acetyl-1-S-hydroxyethylmethyl-1-thio-β-D-glucopyranose [Compound 4]",% T/C,[1]; 100 mg/kg,116%
"CCC[As](CCC)S[C@@H]1O[C@H](COC(C)=O)[C@@H](OC(C)=O)[C@H](OC(C)=O)[C@H]1OC(C)=O [Compound 2, 2,3,4,6-tetra-O-acetyl-1-S-dipropylarsino-1-thio-β-D-glucopyranose]",% T/C,[1]; 200 mg/kg,124%
"CC(=O)N[C@@H]1[C@@H](OC(C)=O)[C@H](OC(C)=O)[C@@H](COC(C)=O)O[C@H]1S[As](C)C [Compound 18, 2-acetamido-3,4,6-tri-O-acetyl-2-deoxy-1-S-dimethylarsino-1-thio-β-D-glucopyranose]",% T/C,[1]; 50 mg/kg,136%
"CC(C)CCC[C@@H](C)[C@H]1CC[C@H]2[C@@H]3CC=C4C[C@@H]([Se][As](C)C)CC[C@]4(C)[C@H]3CC[C@]12C [Compound 15, Se-dimethylarsino-selenocholesterol]",% T/C,[1]; 200 mg/kg,129%
"CCCC[As](CCCC)S[C@@H]1O[C@H](COC(C)=O)[C@@H](OC(C)=O)[C@H](OC(C)=O)[C@H]1OC(C)=O [Compound 1, 2,3,4,6-tetra-O-acetyl-1-S-dibutylarsino-1-thio-β-D-glucopyranose]",% T/C,[1]; 100 mg/kg,117%
"CC(=O)N[C@H]1[C@@H](OC(C)=O)O[C@H](CS[As](C)C)[C@@H](OC(C)=O)[C@@H]1OC(C)=O [Compound 20, 2-acetamido-1,3,4-tri-O-acetyl-2-deoxy-6-S-dimethylarsino-6-thio-α-D-glucopyranose]",% T/C,[1]; 100 mg/kg,136%
